Literature values as cited in article PMC6282790, “Incorporating physiologically relevant mobile phases in micellar liquid chromatography for the prediction of human intestinal absorption” (Biomedical Chromatography, 2018).
Like-named read-outs stand apart in the source and are kept apart here. One block for each molecule: values may come before it.

Key:
[1] = human intestinal absorption
[2] = design: method as in https://pubchem.ncbi.nlm.nih.gov/, December 2014; unit not given beside the values; details: literature values; ref https://pubchem.ncbi.nlm.nih.gov/, December 2014
[3] = in 0.15 M NaCl
[4] = ref Castillo‐Garit et al. (2014)

SMILES: CC(=O)Nc1ccc(O)cc1 [Acetaminophen, acetaminophen]
Experimental. %HIA [1, 4]: 100%
PSA [2]: 49.3

SMILES: CC(=O)Oc1ccccc1C(=O)O [Acetylsalicylic acid, acetyl salicylic acid]
Experimental. %HIA [1, 4]: 82%
PSA [2]: 63.6

SMILES: NC(=O)N1c2ccccc2C=Cc2ccccc21 [Carbamazepine, carbamazepine]
Experimental. %HIA ([1]; ref Dressman, Amidon, & Fleisher (1985), Varma, Sateesh, & Panchagnula (2005)): 84%
PSA [2]: 46.3

SMILES: O=C(O)Cc1ccccc1Nc1c(Cl)cccc1Cl [Diclofenac, diclofenac]
Experimental. %HIA ([1]; ref Veber et al. (2002)): 54%

SMILES: OC(Cn1cncn1)(Cn1cncn1)c1ccc(F)cc1F [Fluconazole, fluconazole]
PSA [2]: 81.6

SMILES: CC(C(=O)O)c1ccc(-c2ccccc2)c(F)c1 (stereo not shown) [Flurbiprofen, flurbiprofen]
Experimental. %HIA ([1]; ref Raevsky (2004)): 92%
PSA [2]: 37.3

SMILES: C[C@H](CCC(=O)NCC(=O)[O-])[C@H]1CC[C@H]2[C@@H]3CC[C@@H]4C[C@H](O)CC[C@]4(C)[C@H]3C[C@H](O)[C@]12C.[Na+] [NaGDC, sodium glycodeoxycholate]
CMC ([3]; ref Natalini et al., 2014): 2.2 mM

SMILES: C[C@H](CCC(=O)NCCS(=O)(=O)O)[C@H]1CC[C@H]2[C@@H]3[C@H](O)C[C@@H]4C[C@H](O)CC[C@]4(C)[C@H]3C[C@H](O)[C@]12C [NaTC, sodium taurocholate]
CMC ([3]; ref Natalini et al., 2014): 4 mM

SMILES: O=C(O)c1cccnc1 [Nicotinic acid, nicotinic acid]
Experimental. %HIA ([1]; ref Newby et al. (2015)): 94%

SMILES: CCCCC1C(=O)N(c2ccccc2)N(c2ccccc2)C1=O [Phenylbutazone, phenylbutazone]
Experimental. %HIA ([1]; ref Hou et al. (2007), Veber et al. (2002)): 94%
PSA [2]: 40.6

SMILES: O=C(O)c1ccccc1O [Salicylic acid, salicylic acid]
Experimental. %HIA ([1]; ref Raevsky (2004)): 99%
PSA [2]: 57.5

SMILES: Cn1c(=O)c2[nH]cnc2n(C)c1=O [Theophylline, theophylline]
Experimental. %HIA ([1]; ref Kansy, Senner, & Gubernator (1998)): 98%
PSA [2]: 69.3

Results, then the molecule that gave them:

Experimental. %HIA ([1]; ref Castillo‐Garit et al. (2014), Linnankoski, Mäkelä, Ranta, Urtti, & Yliperttula (2006)): 68%
PSA [2]: 88.89
SMILES: CN/C(=N/CCSCc1nc[nH]c1C)NC#N [Cimetidine, cimetidine]

Experimental. %HIA ([1]; ref Hou, Wang, Zhang, & Xu (2007)): 85%
PSA [2]: 46.5
SMILES: CC(C(=O)O)c1cccc(Oc2ccccc2)c1 (stereo not shown) [Fenoprofen, fenoprofen]

Experimental. %HIA ([1]; ref Newby et al. (2015)): 98%
PSA [2]: 37.3
SMILES: CC(C)Cc1ccc(C(C)C(=O)O)cc1 (stereo not shown) [Ibuprofen, ibuprofen]

PSA [2]: 54.4
SMILES: CC(C(=O)O)c1cccc(C(=O)c2ccccc2)c1 (stereo not shown) [Ketoprofen, ketoprofen]

CMC ([3]; ref Reis et al., 2004): 7.5 mM
SMILES: C[C@H](CCC(=O)[O-])[C@H]1CC[C@H]2[C@@H]3[C@H](O)C[C@@H]4C[C@H](O)CC[C@]4(C)[C@H]3C[C@H](O)[C@]12C.[Na+] [NaC, sodium cholate]

CMC ([3]; ref Natalini et al., 2014): 9 mM
SMILES: C[C@H](CCC(=O)NCC(=O)[O-])[C@H]1CC[C@H]2[C@@H]3[C@H](O)C[C@@H]4C[C@H](O)CC[C@]4(C)[C@H]3C[C@H](O)[C@]12C.[Na+] [NaGC, sodium glycocholate]

CMC ([3]; ref Natalini et al., 2014): 2.4 mM
SMILES: C[C@H](CCC(=O)NCCS(=O)(=O)[O-])[C@H]1CC[C@H]2[C@@H]3CC[C@@H]4C[C@H](O)CC[C@]4(C)[C@H]3C[C@H](O)[C@]12C.[Na+] [NaTDC, sodium taurodeoxycholate]

Experimental. %HIA [1, 4]: 94%
SMILES: COc1ccc2cc([C@H](C)C(=O)O)ccc2c1 [Naproxen, naproxen]

Experimental. %HIA ([1]; ref Grès et al. (1998)): 25%
PSA [2]: 72.7
SMILES: CC(C)(C)NCC(O)c1cc(O)cc(O)c1 (stereo not shown) [Terbutaline, terbutaline]

Experimental. %HIA ([1]; ref Newby et al. (2015)): 92%
PSA [2]: 57.4
SMILES: CN(C)CCc1c[nH]c2ccc(C[C@H]3COC(=O)N3)cc12 [Zolmitriptan, zolmitriptan]
